The values below come from patent US20230114241A1, “METHODS OF TREATING EPILEPSY USING THE SAME” (Trevena, Inc., priority 2019, published 2023).

The target of assay [1] is T1, human sphingosine-1-phosphate receptor 1 (S1P1) (Homo sapiens, UniProt P21453). Put plainly: β-Arrestin2 recruitment assay (PathHunter), S1P1 CHO-K1 cells. Type of assay: cell-based. As to conditions: for Emax: efficacy normalized to maximum efficacy of fingolimod, read-out: hS1P1 B-arrestin2 SPAN; for EC50: β-arrestin2 recruitment, read-out: hS1P1 B-arrestin2 pEC50 (converted). The method, boiled down: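 Agonist-driven β-arrestin2 recruitment measured by β-galactosidase complementation after 60 min compound exposure at 37 °C and 1 h detection at room temperature. Cells: stable CHO-K1 line expressing tagged human S1P1 with EA-β-arrestin2, plated the night before. Data expressed relative to fingolimod.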
Background: Recruitment of arrestin is a read-out of receptor activation apart from second messengers.
Target sequence in this assay (P21453 whole entry): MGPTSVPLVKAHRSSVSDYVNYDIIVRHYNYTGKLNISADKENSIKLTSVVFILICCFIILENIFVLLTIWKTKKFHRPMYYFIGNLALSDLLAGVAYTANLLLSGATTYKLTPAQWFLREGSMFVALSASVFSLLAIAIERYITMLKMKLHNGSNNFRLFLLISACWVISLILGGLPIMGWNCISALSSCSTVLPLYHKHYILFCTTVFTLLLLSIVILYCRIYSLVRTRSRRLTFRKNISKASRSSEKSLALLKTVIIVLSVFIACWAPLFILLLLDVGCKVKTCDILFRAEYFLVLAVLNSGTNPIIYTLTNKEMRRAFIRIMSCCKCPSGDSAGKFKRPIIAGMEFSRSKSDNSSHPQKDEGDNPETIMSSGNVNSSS
Target sequence in this assay (P32121 whole entry partner): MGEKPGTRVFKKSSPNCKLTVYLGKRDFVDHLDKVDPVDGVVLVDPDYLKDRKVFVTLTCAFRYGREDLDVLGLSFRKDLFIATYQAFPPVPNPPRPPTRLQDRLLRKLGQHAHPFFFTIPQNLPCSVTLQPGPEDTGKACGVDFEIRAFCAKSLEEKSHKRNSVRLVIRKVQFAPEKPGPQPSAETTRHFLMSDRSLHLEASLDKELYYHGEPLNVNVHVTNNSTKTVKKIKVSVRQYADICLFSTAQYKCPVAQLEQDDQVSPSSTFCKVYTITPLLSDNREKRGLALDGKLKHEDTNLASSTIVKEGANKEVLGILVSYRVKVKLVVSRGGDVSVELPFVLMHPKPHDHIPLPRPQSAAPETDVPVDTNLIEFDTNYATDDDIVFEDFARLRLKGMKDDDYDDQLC

For assay [2], the target named is T1, human sphingosine-1-phosphate receptor 1 (S1P1). The assay is described as follows: Inhibition of cAMP production (HTRF cAMP HiRange), S1P1 CHO-K1 cells. Type of assay: cell-based. As to conditions: for Emax: CHO-K1, efficacy normalized to maximum efficacy of fingolimod, read-out: hS1P1 CAMP SPAN; for EC50: read-out: hS1P1 CAMP pEC50 (converted). The procedure, abridged:
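Intracellular cAMP changes read by TR-FRET (HTRF HiRange, 1 h room temperature) after 30 min compound exposure at 37 °C. Cells: overnight-plated CHO-K1 stably expressing tagged human S1P1 with EA-β-arrestin2. Responses normalized to fingolimod.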
Target sequence in this assay (P21453 whole entry): as the sequence (P21453 whole entry) above
In general terms: Cyclic AMP is a second messenger, typically raised through Gs and lowered through Gi signalling.

Where [3] appears, read: inhibition of cAMP production, S1P1.
The mark [4] stands for this setting: CHO-K1, β-arrestin2 recruitment.
Setting [5] is: inhibition of cAMP production, potency.

Where only a bound is given, the exact number is not on record here.

With `CCC1(CC)CC(=O)c2cc(-c3nc(-c4ccnc(NS(C)(=O)=O)c4)no3)ccc2O1` [Compound 556, N-(4-(5-(2,2-diethyl-4-oxochroman-6-yl)-1,2,4-oxadiazol-3-yl)pyridin-2-yl)methanesulfonamide], the Emax was under 75% in assay [1] (CHO-K1) and over 75% in assay [2]. For the same molecule, the EC50 in assay [1] (S1P1) is under 10 µM; in assay [2] (setting [3]), under 0.316 µM.
On to `COc1ccccc1-c1csc(-c2ccc3c(ccn3C(C)C)n2)n1` [Compound 411, 2-(1-isopropyl-1H-pyrrolo[3,2-b]pyridin-5-yl)-4-(2-methoxyphenyl)thiazole], for which the Emax in assay [1] (CHO-K1) and in assay [2] was under 75% each time. Moreover, the EC50 in assay [1] (S1P1) was over 10 µM; in assay [2] (setting [3]), over 0.316 µM.
Regarding `CC(C)n1nnc2cc(-c3nc(-c4cncnc4)no3)ccc21` [Compound 249, 1-(propan-2-yl)-5-[3-(pyrimidin-5-yl)-1,2,4-oxadiazol-5-yl]-1H-1,2,3-benzotriazole], the values for the Emax in assay [1] (setting [4]) and in assay [2] (inhibition of cAMP production) were under 75% and over 75%, respectively. The EC50 was over 10 µM in assay [1] (potency) and over 0.316 µM in assay [2] (setting [5]).
Take `CCC1(CC)CC(=O)c2cc(-c3nc(-c4cccnc4O)no3)ccc2O1` [Compound 258, 2,2-diethyl-6-(3-(2-hydroxypyridin-3-yl)-1,2,4-oxadiazol-5-yl)chroman-4-one]: the Emax in assay [1] (setting [4]) and in assay [2] (inhibition of cAMP production) was under 75% each time. Moreover, the EC50 in assay [1] (potency) was over 10 µM; in assay [2] (setting [5]), over 0.316 µM.
For the molecule `CCC1(CC)CC(=O)c2cc(-c3nc(-c4cncc(NC(C)=O)c4)no3)ccc2O1` [Compound 538, N-(5-(5-(2,2-diethyl-4-oxochroman-6-yl)-1,2,4-oxadiazol-3-yl)pyridin-3-yl)acetamide], the Emax in assay [1] (CHO-K1) and in assay [2] was under 75% throughout. The EC50 was under 10 µM in assay [1] (S1P1) and under 0.316 µM in assay [2] (setting [3]).
For the molecule `Cc1ccccc1-c1noc(-c2cnc3c(c2)nnn3C(C)C)n1` [Compound 382, 3-(2-methylphenyl)-5-[3-(propan-2-yl)-3H-[1,2,3]triazolo[4,5-b]pyridin-6-yl]-1,2,4-oxadiazole], the Emax in assay [1] (CHO-K1) and in assay [2] was over 75% throughout. The EC50 in assay [1] (S1P1) was under 10 µM; in assay [2] (setting [3]), under 0.316 µM.
For the molecule `CCC1(CC)CC(=O)c2cc(-c3nc(-c4cccc(OC)n4)no3)ccc2O1` [Compound 553, 2,2-diethyl-6-[3-(6-methoxypyridin-2-yl)-1,2,4-oxadiazol-5-yl]-3,4-dihydro-2H-1-benzopyran-4-one], the Emax in assay [1] (CHO-K1) was under 75%; in assay [2], over 75%. The EC50 was under 10 µM in assay [1] (S1P1) and over 0.316 µM in assay [2] (setting [3]).
For `CC(C)Nc1ccc(-c2nnc(-c3ccc4ncn(C)c4c3)o2)cc1C#N` [Compound 579, 5-[5-(1-methyl-1H-1,3-benzodiazol-6-yl)-1,3,4-oxadiazol-2-yl]-2-[(propan-2-yl)amino]benzonitrile], the Emax in assay [1] (CHO-K1) and in assay [2] was over 75% each time. Moreover, the EC50 was under 10 µM in assay [1] (S1P1) and under 0.316 µM in assay [2] (setting [3]).
`CC(C)Nc1ccc(-c2nnc(-c3ccc4c(c3)ncn4C)o2)cc1C#N` [Compound 572, 5-[5-(1-methyl-1H-1,3-benzodiazol-5-yl)-1,3,4-oxadiazol-2-yl]-2-[(propan-2-yl)amino]benzonitrile]: the results for the Emax in assay [1] (CHO-K1) and in assay [2] were over 75% and under 75%, respectively. Besides, the EC50 in assay [1] (S1P1) is over 10 µM; in assay [2] (setting [3]) it was over 0.316 µM.
For `Cc1cccc2nc(-c3ccc4c(c3)nnn4CC(C)C)oc12` [Compound 449, 2-(1-isobutyl-1H-benzo[d][1,2,3]triazol-5-yl)-7-methyl-benzo[d]oxazole] the same measures were over 75%, over 75%, over 10 µM and over 0.316 µM.
For `CC(C)Nc1ccc(-c2nc(-c3ccc4c(c3)NC(=O)CC4)no2)cc1C#N` [Compound 435, 2-(isopropylamino)-5-(3-(2-oxo-1,2,3,4-tetrahydroquinolin-7-yl)-1,2,4-oxadiazol-5-yl)benzonitrile] the same measures were over 75%, over 75%, under 10 µM and under 0.316 µM.
As for `CCC1(CC)CC(=O)c2cc(-c3nc(-c4ccc(NS(C)(=O)=O)cc4OC)no3)ccc2O1` [Compound 568, N-{4-[5-(2,2-diethyl-4-oxo-3,4-dihydro-2H-1-benzopyran-6-yl)-1,2,4-oxadiazol-3-yl]-3-methoxyphenyl}methane-sulfonamide], the Emax in assay [1] (CHO-K1) and in assay [2] was over 75% each time. In addition, the figures for the EC50 in assay [1] (S1P1) and in assay [2] (setting [3]) were under 10 µM and under 0.316 µM, respectively.
Turning to `Cn1cnc2ccc(-c3nnc(-c4ccc(NC(C)(C)CO)c(C#N)c4)o3)cc21` [Compound 634, 2-[(1-hydroxy-2-methylpropan-2-yl)amino]-5-[5-(1-methyl-1H-1,3-benzodiazol-6-yl)-1,3,4-oxadiazol-2-yl]benzonitrile], the Emax in assay [1] (CHO-K1) and in assay [2] was under 75% each time. Further, the EC50 was over 10 µM in assay [1] (S1P1) and over 0.316 µM in assay [2] (setting [3]).
In the case of `CC(C)n1nnc2cc(-c3noc(-c4ccccc4C(F)(F)F)n3)ccc21` [Compound 33, 3-(1-isopropyl-benzotriazol-5-yl)-5-[2-(trifluoromethyl)phenyl]-1,2,4-oxadiazole], the Emax in assay [1] (setting [4]) and in assay [2] (inhibition of cAMP production) was over 75% each time. Also, the EC50 was under 10 µM in assay [1] (potency) and under 0.316 µM in assay [2] (setting [5]).
For the molecule `CC(C)n1nnc2cc(-c3nc4cccc(Br)c4o3)ccc21` [Compound 429, 7-bromo-2-(1-isopropyl-1H-benzo[d][1,2,3]triazol-5-yl)benzo[d]oxazole], the Emax in assay [1] (CHO-K1) and in assay [2] was over 75% each time. The values for the EC50 in assay [1] (S1P1) and in assay [2] (setting [3]) were over 10 µM and over 0.316 µM, respectively.
Regarding `Cc1ccc(-c2noc(-c3ccc4c(c3)nnn4C3CCCC3)n2)s1` [Compound 192, 1-cyclopentyl-5-[3-(5-methylthiophen-2-yl)-1,2,4-oxadiazol-5-yl]-1H-1,2,3-benzotriazole], the Emax in assay [1] (setting [4]) and in assay [2] (inhibition of cAMP production) was under 75% each time. Besides, the EC50 in assay [1] (potency) was over 10 µM; in assay [2] (setting [5]), over 0.316 µM.
Take `CCC1(CC)CC(=O)c2cc(-c3nc(-c4cncc(C(F)(F)F)c4)no3)ccc2O1` [Compound 557, 2,2-diethyl-6-(3-(5-(trifluoromethyl)pyridin-3-yl)-1,2,4-oxadiazol-5-yl)chroman-4-one]: the Emax was under 75% in assay [1] (CHO-K1) and over 75% in assay [2]. Besides, the EC50 was under 10 µM in assay [1] (S1P1) and over 0.316 µM in assay [2] (setting [3]).
For `CC(C)Nc1ccc(-c2nnc(-c3ccc4[nH]c(=O)oc4c3)o2)cc1C#N` [Compound 484, 5-[5-(2-oxo-2,3-dihydro-1,3-benzoxazol-6-yl)-1,3,4-oxadiazol-2-yl]-2-[(propan-2-yl)amino]benzonitrile], the Emax in assay [1] (CHO-K1) and in assay [2] was over 75% throughout. Further, the figures for the EC50 in assay [1] (S1P1) and in assay [2] (setting [3]) were under 10 µM and under 0.316 µM, respectively.
Regarding `O=C1CC2(CCC(F)(F)CC2)Oc2ccc(-c3nc(-c4ccncc4)no3)cc21` [Compound 217, 4′,4′-difluoro-6-[3-(pyridin-4-yl)-1,2,4-oxadiazol-5-yl]-3,4-dihydrospiro[1-benzopyran-2,1′-cyclohexane]-4-one], the Emax in assay [1] (setting [4]) and in assay [2] (inhibition of cAMP production) was under 75% throughout. The EC50 is over 10 µM in assay [1] (potency) and over 0.316 µM in assay [2] (setting [5]).
On to `CCCCC1CC(=O)c2ccc(-c3nc(-c4cccnc4)no3)cc2O1` (stereo not drawn) [Compound 633, 2-butyl-7-[3-(pyridin-3-yl)-1,2,4-oxadiazol-5-yl]-3,4-dihydro-2H-1-benzopyran-4-one], for which the Emax in assay [1] (CHO-K1) and in assay [2] was under 75% each time. In addition, the EC50 in assay [1] (S1P1) was over 10 µM; in assay [2] (setting [3]), over 0.316 µM.
Regarding `CC(C)C(c1ccccc1)c1noc(-c2ccc3c(c2)nnn3C(C)C)n1` (stereo not drawn) [Compound 56, 5-[3-(2-methyl-1-phenyl-propyl)-1,2,4-oxadiazol-5-yl]-1-(propan-2-yl)-1H-1,2,3-benzotriazole], the Emax in assay [1] (setting [4]) and in assay [2] (inhibition of cAMP production) was under 75% in each case. For the same molecule, the EC50 in assay [1] (potency) is over 10 µM; in assay [2] (setting [5]), over 0.316 µM.
For the molecule `CCC1(CC)CC(=O)c2cc(-c3ncc(-c4ccccc4OC)cn3)ccc2O1` [Compound 594, 2,2-diethyl-6-(5-(2-methoxyphenyl)pyrimidin-2-yl)chroman-4-one], the Emax in assay [1] (CHO-K1) and in assay [2] was over 75% throughout. For the same molecule, the results for the EC50 in assay [1] (S1P1) and in assay [2] (setting [3]) were under 10 µM and under 0.316 µM, respectively.
Take `CC(C)(CO)n1nnc2cc(-c3noc(-c4ccccc4Cl)n3)ccc21` [Compound 618, 2-(5-(5-(2-chloro-phenyl)-1,2,4-oxadiazol-3-yl)-1H-benzo[d][1,2,3]triazol-1-yl)-2-methylpropan-1-ol]: the Emax in assay [1] (CHO-K1) and in assay [2] was under 75% each time. For the same molecule, the results for the EC50 in assay [1] (S1P1) and in assay [2] (setting [3]) were under 10 µM and over 0.316 µM, respectively.
Regarding `COc1ccc(-c2nsc(-c3ccc4[nH]ccc4c3)n2)cc1` [Compound 363, 5-[3-(4-methoxyphenyl)-1,2,4-thiadiazol-5-yl]-1H-indole], the Emax in assay [1] (setting [4]) and in assay [2] (inhibition of cAMP production) was under 75% in each case. Further, the EC50 in assay [1] (potency) is over 10 µM; in assay [2] (setting [5]), over 0.316 µM.
